Data published in US20110097365A1, “S-TRIAZINE DERIVATIVES CONTAINING AT LEAST TWO PARTICULAR SILANE AMINOBENZOATE OR SILANE AMINOBENZAMIDE GROUPS; PHOTOPROTECTIVE COSMETIC COMPOSITIONS CONTAINING THESE DERIVATIVES; USES OF THE SAID S-TRIAZINE DERIVATIVES” (L'OREAL, priority 2007, published 2011).
Several values for one entry are separate records, joined by “and”; a condition that tells them apart may be missing. Equal entries are not always repeated.

Tests used:
Format in all cases: physicochemical
[1] = UV absorption of the derivatives in DMSO/ethanol; conditions: for E1% / εmax: at the λmax of the same block
[2] = Granulometric measurements by SLS (Mastersizer)
Experimental: (§1) Two micronizations of these compounds 1 and 2 are performed by milling in oily medium (oil: phenylethyl benzoate—X-Tend 226 from ISP) by means of a mill without addition of dispersant, using a Dispermat ball mill.
(§2) • Dispermat AE 06-C1 disperser-mill (Brant Industrie) • Dispersion: slurries containing 17% R056336A and 49% F17845 (difference in oil uptake) ˜3000 rpm ˜15 minutes • Milling under rapid conditions (30 minutes at 4500 rpm), not optimized (water-cooling circuit not operational) with 0.7-1.2 mm […] balls.
The granulometric results obtained by SLS using a Mastersizer granulometer reveal a very marked difference in particle size between compound 1 and compound 2, with particle sizes d(0.5), respectively, of 0.118 μm as opposed to 851 μm.

[3] = Macroscopic observation of 1% oily dispersions in phenylethyl benzoate; conditions: 1% by weight in phenylethyl benzoate (X-Tend 226), after about one week
Experimental: as §1, §2
Two oily dispersions in phenylethyl benzoate (X-Tend 226) comprising 1% by weight, respectively, of compound 1A or 2A are then prepared.

macroscopic stability of dispersion [3] | Structure (SMILES) | λmax [1] | E1% [1] | εmax [1] | particle size d(0.5) ([2]; after milling in phenylethyl benzoate without dispersant, SLS Mastersizer) | dispersibility in the oil phenylethyl benzoate ([2]; overall conclusion, compared with compound 2)
 | CC12CCC(/C(=C\c3ccc(Nc4nc(Nc5ccc(C(=O)OC[Si](C)(C)C)cc5)nc(Nc5ccc(C(=O)OC[Si](C)(C)C)cc5)n4)cc3)C1=O)C2(C)C (stereo not shown) [Example 6, 2,4-bis(methyltrimethylsilyl 4′-aminobenzoate)-6-(4″-aminobenzylidenecamphor)-s-triazine] | 313 nm and 345 nm |  |  |  | 
 | C[Si](C)(C)CNC(=O)c1ccc(Nc2nc(Nc3ccc(C(=O)NC[Si](C)(C)C)cc3)nc(Nc3ccc(C(=O)NC[Si](C)(C)C)cc3)n2)cc1 [Example 7, 2,4,6-tris(methyltrimethyl-silyl 4′-aminobenzamide)-s-triazine] | 303 nm | 1123 | 83 330 |  | 
 | COc1ccc(-c2nc(Nc3ccc(C(=O)OC[Si](C)(C)C)c(O)c3)nc(Nc3ccc(C(=O)OC[Si](C)(C)C)c(O)c3)n2)cc1 [Example 5, 2,4-bis(methyltrimethylsilyl 4′-aminosalicylate)-6-(para-methoxyphenyl)-s-triazine] | 329 nm and 316 nm and 298 nm | 927 and 1066 and 1030 | 61 370 and 70 570 and 68 190 |  | 
 | COc1ccc(-c2nc(Nc3ccc(C(=O)OC[Si](C)(C)C)cc3)nc(Nc3ccc(C(=O)OC[Si](C)(C)C)cc3)n2)cc1 [Example 4, 2,4-bis(methyltrimethylsilyl 4′-aminobenzoate)-6-(para-methoxyphenyl)-s-triazine] | 303 nm | 1313 | 82 700 |  | 
 | C[Si](C)(C)COC(=O)c1ccc(Nc2nc(Nc3ccc(C(=O)OC[Si](C)(C)C)c(O)c3)nc(Nc3ccc(C(=O)OC[Si](C)(C)C)c(O)c3)n2)cc1O [Example 3, 2,4,6-tris(methyltrimethyl-silyl 4′-aminosalicylate)-s-triazine] | 326 nm and 300 nm | 1456 and 938 | 107 610 and 74 400 |  | 
 | CCCCOC(=O)c1ccc(Nc2nc(Nc3ccc(C(=O)OC[Si](C)(C)C)cc3)nc(Nc3ccc(C(=O)OC[Si](C)(C)C)cc3)n2)cc1 [Example 2, 2,4-bis(methyltrimethylsilyl 4′-aminobenzoate)-6-(butyl 4″-aminobenzoate)-s-triazine] | 313 nm | 1660 | 104 560 |  | 
 | C[Si](C)(C)COC(=O)c1ccc(Nc2nc(Nc3ccc(C(=O)OC[Si](C)(C)C)cc3)nc(Nc3ccc(C(=O)OC[Si](C)(C)C)cc3)n2)cc1 [Example 1, 2,4,6-tris(methyltrimethyl-silyl 4′-aminobenzoate)-s-triazine] | 314 nm | 1700 | 126 660 | 0.118 μm | markedly superior dispersibility
totally insoluble | CC(C)(C)CC(C)(C)c1cc(Cc2cc(C(C)(C)CC(C)(C)C)cc(-n3nc4ccccc4n3)c2O)c(O)c(-n2nc3ccccc3n2)c1 [Compound 2, methylenebis(benzo-triazolyl)tetramethylbutylphenol] |  |  |  |  | 
